Where “and” joins values, the source holds several entries; their conditions need not be identical. Equal entries are not always repeated. Where two headings read alike, the source gives them in different places.
Legend:
Assay type in all cases: cell-based
[1] = tested on: SARS-CoV-2 strain USA-WA1/2020; conditions: for Averaged Test Sample Percent Log Reduction to Averaged Virus Controls: averaged over 15, 30, 45 min
[2] = tested on: SARS-CoV-2 strain USA-WA1/2020; conditions: Silicone wash, and spin cycle, time 45 min
[3] = tested on: SARS-CoV-2 strain USA-WA1/2020; test: Drying cycle and washing cycle combined test results (complete dry cleaning process); conditions: for Averaged Test Sample Percent Log Reduction of complete dry cleaning process: wash/spin results combined with heat, liquid and vapor results
From the text: Data shown in Table 2 represents the individual dry cleaning process percent log reduction to the control samples for each coupon set at each process time, and averaged percent reduction of each process on viral deactivation. The silicone wash and spin rinse tests were combined with the heat, silicone liquid, and vapor exposure process results to define the overall percent viral reduction of the complete dry cleaning process. A plot showing the percent log reduction efficacy of each of the simulated dry cleaning processes and the total process in deactivating SARS-CoV-2 infected wool blend fabric material is shown in FIG. 2.
This testing was conducted to provide an accurate simulation of patented dry cleaning process in a laboratory environment.
It should be noted, that in one simulation of the drying cycle, the combination of heat, vapor, and liquid condition produced a percent log reduction to virus control of 98.00%.

[4] = Heat + Liquid + Vapor, 70° C., 15 min
[5] = Heat + Liquid + Vapor, 70° C., 30 min
[6] = Heat + Liquid + Vapor, 70° C., 45 min
[7] = Heat + Silicone Liquid, 70° C., 15 min
[8] = Heat + Silicone Liquid, 70° C., 30 min
[9] = Heat + Silicone Liquid, 70° C., 45 min
[10] = Heat + Silicone Vapor, 70° C., 15 min
[11] = Heat + Silicone Vapor, 70° C., 30 min
[12] = Heat + Silicone Vapor, 70° C., 45 min
[13] = samples G5-15 (condition cell blank; heat + liquid + vapor per Table 2), 15 min
[14] = samples G5-30 (condition cell blank; heat + liquid + vapor per Table 2), 30 min
[15] = samples G5-45 (condition cell blank; heat + liquid + vapor per Table 2), 45 min
[16] = Complete cycle - silicone wash, spin, heat and vapor, time 45 min
[17] = Silicone wash, and spin cycle, time 45 min

C[Si]1(C)O[Si](C)(C)O[Si](C)(C)O[Si](C)(C)O[Si](C)(C)O1 [D5, decamethylcyclopentasiloxane]
TCID50 (individual sample) ([1]; D5 Liquid Only Control, 45 min): 31.62
Avg TCID50 ([1]; Heat & D5 Liquid, 15 min): 789.8
TCID50 (individual sample) ([1]; Heat & D5 Liquid, 15 min): 316.2 and 794.3 and 1258.9254
Avg TCID50 ([1]; Heat & D5 Liquid, 30 min): 1125
TCID50 (individual sample) ([1]; Heat & D5 Liquid, 30 min): 879.9254 and 501.2 and 1995.2623
Avg TCID50 ([1]; Heat & D5 Liquid, 45 min): 1590
TCID50 (individual sample) ([1]; Heat & D5 Liquid, 45 min): 1258.9254 and 1415.1212 and 2096.18
Avg TCID50 ([1]; Heat & D5 Vapor, 15 min): 3389.8041
TCID50 (individual sample) ([1]; Heat & D5 Vapor, 15 min): 1995.2623 and 5011.8723 and 3162.2777
Avg TCID50 ([1]; Heat & D5 Vapor, 30 min): 2510
TCID50 (individual sample) ([1]; Heat & D5 Vapor, 30 min): 5011.8723 and 1258.9254 (2×)
Avg TCID50 ([1]; Heat & D5 Vapor, 45 min): 2983
TCID50 (individual sample) ([1]; Heat & D5 Vapor, 45 min): 3162.2777 and 3690.622 and 2096.18
Average of Test Replicates Log10 TCID50 [1, 4]: 1.98
Average of Test Replicates TCID50 [1, 4]: 94.92
Log10 Reduction to virus control [1, 4]: 1.70
Percent Log Reduction to Virus Control [1, 4]: 98.00%
Percent Log Reduction to Virus Control ([1]; Heat + Liquid + Vapor, 70° C., 15 min, listed as Silicone): 98.00%
Average of Test Replicates Log10 TCID50 [1, 5]: 2.14
Average of Test Replicates TCID50 [1, 5]: 138.31
Log10 Reduction to virus control [1, 5]: 1.54
Percent Log Reduction to Virus Control [1, 5]: 97.09%
Average of Test Replicates Log10 TCID50 [1, 6]: 2.37
Average of Test Replicates TCID50 [1, 6]: 232.01
Log10 Reduction to virus control [1, 6]: 1.31
Percent Log Reduction to Virus Control [1, 6]: 95.12%
Averaged Test Sample Percent Log Reduction to Averaged Virus Controls ([1]; Heat + Liquid + Vapor, 70° C.): approximately 96.7%
Averaged Test Sample Percent Log Reduction to Averaged Virus Controls ([1]; Heat + Liquid + Vapor, 70° C., listed as Silicone): 96.74%
Average of Test Replicates Log10 TCID50 [1, 7]: 2.90
Average of Test Replicates TCID50 [1, 7]: 789.83
Log10 Reduction to virus control [1, 7]: 0.78
Percent Log Reduction to Virus Control [1, 7]: 83.39%
Average of Test Replicates Log10 TCID50 [1, 8]: 3.05
Average of Test Replicates TCID50 [1, 8]: 1125.46
Log10 Reduction to virus control [1, 8]: 0.63
Percent Log Reduction to Virus Control [1, 8]: 76.34%
Average of Test Replicates Log10 TCID50 [1, 9]: 3.20
Average of Test Replicates TCID50 [1, 9]: 1590.08
Log10 Reduction to virus control [1, 9]: 0.48
Percent Log Reduction to Virus Control [1, 9]: 66.57%
Averaged Test Sample Percent Log Reduction to Averaged Virus Controls ([1]; Heat + Silicone Liquid, 70° C.): approximately 75.4%
Averaged Test Sample Percent Log Reduction to Averaged Virus Controls ([1]; Heat + Silicone Liquid, 70° C., listed as Silicone): 75.43%
Average of Test Replicates Log10 TCID50 [1, 10]: 3.53
Average of Test Replicates TCID50 [1, 10]: 3389.80
Log10 Reduction to virus control [1, 10]: 0.15
Percent Log Reduction to Virus Control [1, 10]: 28.72%
Average of Test Replicates Log10 TCID50 [1, 11]: 3.40
Average of Test Replicates TCID50 [1, 11]: 2509.91
Log10 Reduction to virus control [1, 11]: 0.28
Percent Log Reduction to Virus Control [1, 11]: 47.23%
Average of Test Replicates Log10 TCID50 [1, 12]: 3.47
Average of Test Replicates TCID50 [1, 12]: 2983.03
Log10 Reduction to virus control [1, 12]: 0.20
Percent Log Reduction to Virus Control [1, 12]: 37.28%
Averaged Test Sample Percent Log Reduction to Averaged Virus Controls ([1]; Heat + Silicone Vapor, 70° C.): 37.74%
Average of Test Replicates Log10 TCID50 ([1]; Silicone Liquid Control, room temperature (23° C.), 45 min): 1.50
Average of Test Replicates TCID50 ([1]; Silicone Liquid Control, room temperature (23° C.), 45 min, wool blend coupons): 31.62
Avg TCID50 [1, 13]: 91.92
TCID50 (individual sample) [1, 13]: 79.43 (2×) and 125.9
Avg TCID50 [1, 14]: 138.3
TCID50 (individual sample) [1, 14]: 209.618 and 79.43 and 125.9
Avg TCID50 [1, 15]: 232.1
TCID50 (individual sample) [1, 15]: 125.9 (2×) and 444.2
Average of Test Replicates TCID50 ([2]; 89 mL, 35 RPM 16 min, spin 500 rpm 4 min): 35138.40
Average of Test Replicates Log10 TCID50 [2]: 4.54
Averaged Test Sample Percent Log Reduction of complete dry cleaning process [2]: 56.18%
Log10 Reduction to virus control [2]: 0.36
Percent Log Reduction to Virus Control [2]: 56.18%
Percent Log Reduction to Virus Control ([2]; listed as Silicone): 56.18%
Average of Test Replicates Log10 TCID50 [3, 16]: 4.54
Average of Test Replicates TCID50 [3, 16]: 35138.40
Averaged Test Sample Percent Log Reduction of complete dry cleaning process ([3]; Complete cycle - silicone wash, spin, heat and vapor): approximately 98.6%
Averaged Test Sample Percent Log Reduction of complete dry cleaning process ([3]; Complete cycle - silicone wash, spin, heat and vapor, listed as Silicone): 98.57%
Log10 Reduction to virus control [3, 17]: 0.36
Percent Log Reduction to Virus Control [3, 17]: 56.18%
optimized calculated log reduction to the average virus controls ([3]; serial combination of 56.18% wash cycle reduction and 98.00% drying cycle reduction (heat, vapor, liquid)): 99.12%

— patent US11554188B2, “Anti-viral dry cleaning process” ([…], LLC, priority 2020, dated 2023)
